Experimental data taken from US5620676A, “Biologically active ATP analogs” (priority 1995, dated 1997).
Entries after “also recorded” stand apart in the source; their conditions may differ. Where two headings read alike, the source gives them in different places.

Experiments:
[1] = target: T1, P2Y receptor (turkey erythrocyte membranes) (Meleagris gallopavo, UniProt P49652); experiment: Stimulation of phospholipase C (inositol phosphate formation) in turkey erythrocyte membranes; format: biochemical; settings: for EC50 / activity/potency in words, turkey erythrocyte: turkey erythrocyte membranes; for fold less potent than ATP, turkey erythrocyte: relative to ATP
T1 construct: from tissue; host or cells: washed turkey erythrocytes, ghosts prepared by hypotonic lysis
How it was run: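 Erythrocytes were labelled 18-24 h at 37 °C with [3H]myoinositol, and ghosts were made by hypotonic lysis. Ghosts (≈175 μg protein) were incubated 5 min at 30 °C in Hepes buffer pH 7.0 with 1 μM GTPγS and nucleotide analogs. Total [3H]inositol phosphates were purified by anion exchange; K0.5 averaged from 3-8 dose-response curves.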

[2] = target: T2, adenylyl cyclase linked P2Y receptor (C6 rat glioma cells) (Rattus norvegicus, UniProt Q9EPX4); experiment: Inhibition of adenylyl cyclase in C6 rat glioma cells; format: cell-based; settings: versus phospholipase C linked receptor
T2 construct: endogenous in cells; host or cells: C6 rat glioma cells
Description: This example illustrates the inhibition of adenylyl cyclase activity in C6 rat glioma cells, as a function of the presence of certain ATP analogs in the medium in which the C6 cells were cultured.
Cells were labelled by incubation for 2 hours in the presence of 1 to 2 mCi of tritiated adenine/ml in the medium. Cells were washed twice with HEPES (20 mM, pH 7.5)-buffered Eagle's medium and then preincubated for 10 minutes at 37° C. with fresh medium containing 200 μM 3-isobutyl-1-methylxanthine. Agonist incubations were initiated by the simultaneous addition of 10 μM isoproterenol and various concentrations of nucleotides. The reactions were stopped after 10 minutes of aspiration of the nucleotide-containing medium and addition of 1 ml of ice-cold 5% trichloroacetic acid.

[3] = target: T3, P2Y receptor (taenia coli) (Cavia porcellus, UniProt P59902); settings: cited from earlier work
T3 construct: Relaxant responses mediated via P2Y receptors were examined in guinea pig taenia coli; from tissue; host or cells: guinea pig taenia coli (carbachol-contracted)

[4] = target: P2Y receptor (mesenteric artery); experiment: Relaxation of rabbit mesenteric artery; settings: for relaxation pD2, mes. artery: log molar units
[5] = tested on: P2Y receptor (aorta endothelium); experiment: Relaxation of noradrenalin-contracted rabbit aorta; settings: for relaxation pD2, aorta: rabbit aorta, log molar units; for activity/potency/selectivity in words, aorta: rabbit aorta endothelial P2Y receptor
Description: (§1) In FIG. 14, the x-axis is also marked in units of the negative log of the molar concentration of applied putative P2Y receptor agonists and the y-axis is marked in units of the percentage relaxation of the 1 μM noradrenalin-induced contraction of rabbit aorta endothelium. In FIGS. 15-16, the x-axis is marked in units of the negative log of the molar concentration of applied putative p^2X receptor agonists and the y-axis is marked in units of the percentage contraction relative to a standard dose of KCl (i.e., 60 mM), as assessed in guinea pig isolated urinary bladder detrussor muscle (FIG. 15) and guinea pig isolated vas deferens (FIG. 16).

[6] = tested on: P2X and P2Y receptors; experiment: Overall activity in the seven P2X and P2Y preparations
[7] = target: T4, P2X receptor (saphenous artery) (Oryctolagus cuniculus, UniProt G1U3D6); experiment: Contraction of rabbit saphenous artery; settings: rabbit saphenous artery
T4 construct: and rabbit saphenous artery; from tissue; host or cells: rabbit saphenous artery
T4 sequence (G1U3D6 1-399): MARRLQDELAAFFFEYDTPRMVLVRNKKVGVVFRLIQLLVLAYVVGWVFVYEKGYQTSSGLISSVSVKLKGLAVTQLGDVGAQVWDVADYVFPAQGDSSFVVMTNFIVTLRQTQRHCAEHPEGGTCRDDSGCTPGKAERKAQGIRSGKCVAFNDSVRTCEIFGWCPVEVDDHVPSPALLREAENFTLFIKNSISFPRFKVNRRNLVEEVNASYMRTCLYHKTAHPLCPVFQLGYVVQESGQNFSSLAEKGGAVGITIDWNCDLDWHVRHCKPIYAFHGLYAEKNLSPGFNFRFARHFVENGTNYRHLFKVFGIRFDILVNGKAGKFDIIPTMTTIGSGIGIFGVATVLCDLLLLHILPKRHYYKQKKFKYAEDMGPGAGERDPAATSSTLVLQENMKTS
How it was run: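 Contraction of isolated rabbit saphenous artery, standard organ-bath methods; responses at 10 μM expressed as percentage of contraction produced by 1 μM α,MeATP. Highest analogue concentrations tested were 3-30 […].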

[8] = tested on: P2X receptors; experiment: Overall activity in P2X receptor systems
[9] = target: T5, P2X receptor (vas deferens) (Cavia porcellus, UniProt A0A286XVA9); experiment: Contraction of guinea pig isolated vas deferens
T5 sequence (A0A286XVA9 1-399): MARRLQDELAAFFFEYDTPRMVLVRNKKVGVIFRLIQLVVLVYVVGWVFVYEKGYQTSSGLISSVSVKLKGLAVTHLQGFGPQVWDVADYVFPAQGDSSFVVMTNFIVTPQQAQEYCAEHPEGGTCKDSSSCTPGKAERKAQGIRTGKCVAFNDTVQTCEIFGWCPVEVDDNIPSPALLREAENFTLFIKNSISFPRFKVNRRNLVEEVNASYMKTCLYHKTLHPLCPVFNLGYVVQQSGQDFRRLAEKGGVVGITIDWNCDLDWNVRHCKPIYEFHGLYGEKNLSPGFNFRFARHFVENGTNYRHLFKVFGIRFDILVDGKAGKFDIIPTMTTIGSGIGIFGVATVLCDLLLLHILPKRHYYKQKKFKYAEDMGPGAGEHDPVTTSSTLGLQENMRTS
Description: as §1

[10] = target: T6, P2X receptor (urinary bladder) (Cavia porcellus, UniProt A0A286XVA9); experiment: Contraction of guinea pig isolated urinary bladder detrussor muscle; settings: guinea pig urinary bladder
T6 construct: guinea pig isolated urinary bladder detrussor muscle; from tissue; host or cells: guinea pig isolated urinary bladder detrusor muscle
Description: as §1

[11] = tested on: P2Y receptors; experiment: Overall activity in P2Y receptor systems
Description: Phospholipase C activity: Stimulation of inositol phosphate formation by compounds of the present invention was measured in turkey erythrocyte membranes as described by Harden et al., supra and Boyer et al., supra. The K0.5 values were averaged from 3-8 independently determined dose-response curves for each compound. Briefly, one ml of washed turkey erythrocytes was incubated in inositol-free medium (DMEM; Gibco) with 0.5-1 mCi of 2-[^3 H]myoinositol (20 Ci/mmol; American Radiolabeled Chemicals Inc., St. Louis, Mo.)for 18-24 h in a humidified atmosphere of 95% air 5% CO2 at 37° C. Erythrocyte ghosts were prepared by rapid lysis in hypotonic buffer (5 mM sodium phosphate, pH 7.4, 5 mM MgCl2, 1 mM EGTA) as described by Boyer et al., supra. Phospholipase C activity was measured in 25 μl of [^3 H]inositol-labeled ghosts (≈175 μg of protein, 200-500,000 cpm/assay) in a medium containing 424 μM CaC12, 0.91 mM MgSO4, 2 mM EGTA, 115 mM KCl, 5 mM KH2 PO4, and 10 mM Hepes, pH 7.0. Assay (100 μl or 200 μl final volume) contained 1 μM GTPγS and the indicated concentrations of nucleotide analogs. Ghosts were incubated at 30° C. for 5 min, and total [^3 H]inositol phosphates were quantitated after purification by anion exchange chromatography according to Harden et al. (supra) and Boyer et al. (supra).
Muscular relaxation/contraction: Relaxant responses mediated via P2Y receptors were examined in guinea pig taenia coli, rabbit aorta, and rabbit mesenteric artery, as described by Hoyle et al. (Br. J. Pharmacol., 107, 367-374 (1992a)), Burnstock et al., (Br. J. Pharmacol., 90, 383-391 (1987a)), and Rubino et al., (Eur. J. Pharmacol., 212, 237-240 (1992)). Contractile responses mediated via P2X receptors were examined in the guinea pig urinary bladder and vas deferens, and rabbit saphenous artery, also using standard methods (see Hoyle et al., supra., 1992; Hoyle et al., Br. J. Pharmacol., 99, 617-621 (1990); and Burnstock et al., Br. J. Pharmacol., 90, 111-120 (1987b)).

[12] = target: T3, P2Y receptor (taenia coli); experiment: Relaxation of carbachol-contracted guinea pig taenia coli; settings: for activity/potency in words, taenia coli: guinea pig taenia coli
How it was run: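 Guinea pig taenia coli precontracted with 50 nM carbachol; relaxation to applied P2Y agonists expressed as percentage relaxation against negative log molar agonist concentration.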

[13] = mean ± S.E.M. for at least 2 determinations, read-out: phosphatidyl inositol metabolism (K0.5, nM) erythrocyte
[14] = listed as 3'-benzylamino-3'-deoxy-ATP
[15] = listed as 3'-benzylamino-3'-deoxyATP
[16] = listed as 3'-Benzylamino-3'-deoxy-ATP
[17] = listed as adenosine-N1-oxide triphosphate

T1 sequence (P49652 whole entry): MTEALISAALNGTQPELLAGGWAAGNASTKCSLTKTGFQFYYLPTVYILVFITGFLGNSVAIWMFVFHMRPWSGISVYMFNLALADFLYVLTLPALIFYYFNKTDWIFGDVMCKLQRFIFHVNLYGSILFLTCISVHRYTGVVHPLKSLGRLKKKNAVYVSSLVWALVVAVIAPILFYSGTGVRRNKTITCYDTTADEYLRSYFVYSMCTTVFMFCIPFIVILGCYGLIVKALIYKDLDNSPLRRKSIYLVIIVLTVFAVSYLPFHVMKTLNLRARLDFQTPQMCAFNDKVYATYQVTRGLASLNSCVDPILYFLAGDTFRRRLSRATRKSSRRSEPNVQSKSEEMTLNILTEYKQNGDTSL
T3 sequence (P59902 whole entry): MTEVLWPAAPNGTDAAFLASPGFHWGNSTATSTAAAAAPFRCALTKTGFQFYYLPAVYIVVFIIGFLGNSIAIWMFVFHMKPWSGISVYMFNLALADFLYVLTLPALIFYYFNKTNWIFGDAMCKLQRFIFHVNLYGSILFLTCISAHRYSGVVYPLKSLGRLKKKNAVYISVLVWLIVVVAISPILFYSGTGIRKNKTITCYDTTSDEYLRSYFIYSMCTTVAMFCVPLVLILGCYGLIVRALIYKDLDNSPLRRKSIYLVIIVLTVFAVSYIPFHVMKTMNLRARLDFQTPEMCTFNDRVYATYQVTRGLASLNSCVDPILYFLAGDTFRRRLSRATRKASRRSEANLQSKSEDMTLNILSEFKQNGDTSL
T2 sequence (Q9EPX4 whole entry): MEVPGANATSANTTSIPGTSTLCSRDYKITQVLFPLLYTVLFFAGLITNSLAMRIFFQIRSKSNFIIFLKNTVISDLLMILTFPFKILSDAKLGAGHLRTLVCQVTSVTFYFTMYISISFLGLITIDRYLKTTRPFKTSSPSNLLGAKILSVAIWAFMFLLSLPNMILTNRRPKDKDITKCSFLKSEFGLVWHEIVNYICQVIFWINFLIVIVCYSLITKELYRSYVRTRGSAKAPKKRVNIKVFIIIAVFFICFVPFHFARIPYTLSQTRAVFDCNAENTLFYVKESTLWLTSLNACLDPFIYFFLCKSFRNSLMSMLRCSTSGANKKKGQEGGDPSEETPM

For `Nc1nc(Cl)nc2c1ncn2[C@@H]1O[C@H](COP(=O)(O)OP(=O)(O)OP(=O)(O)O)[C@@H](O)[C@H]1O` [2-Cl-ATP, 2-chloro-ATP, reference compound], the EC50 [1, 13] was 72 ± 19 nM, the EC50 ([1]; read-out: K0.5) was 72 nM and the “selectivity for the adenylyl cyclase linked receptor, in words” value [2] was “not observed”. For the same compound, the “relaxation pD2, taenia coli” value ([3]; guinea pig taenia coli, log molar units, footnote e: literature data) was 7.2, the “relaxation pD2, mes. artery” value [4] was 6.2 and the “relaxation pD2, aorta” value [5] was 5.8.
In the case of `Nc1ncnc2c1ncn2[C@@H]1O[C@H](COP(=O)(O)OP(=O)(O)OP(=O)(O)O)[C@@H](NCc2ccccc2)[C@H]1O` [3'-Benzylamino-3'-deoxyATP, 3'-N-Benzylamino-3'-deoxyadenosine 5'-triphosphate], the EC50 [1, 13] is reported as over 100000 nM, the “overall activity in words, all preparations” value [6] is reported as “active only in the vas deferens and urinary bladder” and the “activity/potency in words, saphenous artery” value [7] is reported as “inactive”. The “activity/potency in words, saphenous artery” value [7, 14] was “at best weak agonists in the saphenous artery”, the “activity/potency in words, saphenous artery” value [7, 15] was “not rabbit saphenous artery P2X receptors” and the “overall activity in words, P2X systems” value [8] was “specificity for P2X receptors”. For the same compound, the “activity/potency in words, vas deferens” value [9] was “the most potent agonist at vas deferens P2X receptors”, the “activity/potency in words, vas deferens” value [9, 16] was “substantially more potent than ATP” and the “activity/potency in words, vas deferens” value [9, 14] was “potent agonists in the vas deferens and urinary bladder”. The “activity/potency in words, vas deferens” value [9, 15] was “high potency”, the “activity/potency in words, bladder” value [10] was “highly potent at urinary bladder P2X receptors” and the “activity/potency in words, bladder” value [10, 16] was “substantially more potent than ATP”. For the same compound, the “activity/potency in words, bladder” value [10, 14] was “potent agonists in the vas deferens and urinary bladder”, the “activity/potency in words, bladder” value [10, 15] was “high potency” and the “overall activity in words, P2Y systems” value [11] was “either inactive or only a weak agonist in P2Y -systems”. For the same compound, the “overall activity in words, P2Y systems” value ([11]; listed as 3'-benzylamino-3'deoxyATP) was “inactive in the P2Y receptor systems”.
For `Nc1ncnc2c1ncn2[C@@H]1O[C@H](COP(O)(=S)OP(=O)(O)OP(=O)(O)O)[C@@H](O)[C@H]1O` (stereo partly drawn) [ATP-α-S (S-isomer), reference compound], the EC50 ([1]; phosphatidyl inositol metabolism (K0.5, nM) erythrocyte, mean ± S.E.M. for at least 2 determinations) is given as 8930 ± 4440 nM, the “fold less potent than ATP, turkey erythrocyte” value [1] is given as 2 -fold and the “fold more potent than ATP, taenia coli” value ([3]; relative to ATP, see Burnstock et al. 1984) is given as “approximately 10 -fold”. For the same compound, the “relaxation pD2, mes. artery” value [4] was 6.6.
In the case of `Nc1c2ncn([C@@H]3O[C@H](COP(=O)(O)OP(=O)(O)OP(=O)(O)O)[C@@H](O)[C@H]3O)c2nc[n+]1[O-]` [Adenosine N1-oxide 5'-triphosphate, adenosine N1-oxide 5'-triphosphate, reference compound], the “activity/potency in words, turkey erythrocyte” value [1] is reported as “somewhat active in turkey erythrocytes”, the “activity/potency in words, turkey erythrocyte” value [1, 17] is reported as “less potent than ATP at the turkey erythrocyte P2Y receptor” and the EC50 [1, 13] is reported as 16900 nM. The “overall activity in words, P2X systems” value [8] was “inactive in the P2X receptor systems”, the “activity/potency in words, mesenteric artery” value [4] was “no activity at the mesenteric artery P2Y receptor” and the “activity/potency/selectivity in words, aorta” value (“activity/potency/selectivity” below) [5] was “selective for the endothelial receptors of the rabbit aorta versus the mesenteric artery and taenia coli”. For the same compound, the “activity/potency/selectivity” value [5, 17] was “much more potent than ATP”, the “relaxation pD2, aorta” value [5] was 6.7 and the “overall activity in words, P2Y systems” value [11] was “specific for P2Y receptors”. The EC50 [12] was 12.6 µM.
In the case of `CNc1ncnc2c1ncn2[C@@H]1O[C@H](COP(=O)(O)OP(=O)(O)OP(=O)(O)O)[C@@H](O)[C@H]1O` [N^6 -Me-ATP, N^6 -Methyl-adenosine 5'-triphosphate], the “fold less potent than ATP, turkey erythrocyte” value [1] is reported as 7 -fold, the EC50 [1, 13] is reported as 19000 nM and the “selectivity for the adenylyl cyclase linked receptor, in words” value [2] is reported as “slightly selective of the phospholipase C-linked receptor”. For the same compound, the “overall activity in words, P2X systems” value ([8]; listed as N^6 -methyl ATP) was “inactive in P2X preparations”, the “overall activity in words, P2X systems” value ([8]; listed as N^6 -methyl-ATP) was “inactive in the P2X receptor systems” and the “activity/potency in words, mesenteric artery” value [4] was “not activated at concentrations of the N^6 -methyl derivative as high as 10^-5 M”. The “activity/potency/selectivity” value [5] was “significantly less activated”, the “overall activity in words, P2Y systems” value [11] was “inactive in vascular smooth muscle” and the EC50 [12] was 1.58 µM. For the same compound, the “activity/potency in words, taenia coli” value ([12]; listed as N^6 -methyl ATP) was “equipotent with ATP in the taenia coli” and the “activity/potency in words, taenia coli” value ([12]; listed as N^6 -methylATP) was “selectivity; also recorded: at an equal level as if activated by ATP itself”.
